Patent US20260159523A1, “PESTICIDALLY ACTIVE HETEROCYCLIC DERIVATIVES WITH SULFUR CONTAINING SUBSTITUENTS” (SYNGENTA CROP PROTECTION AG, priority 2022, published 2026)

How the values were obtained:
Assay type in all cases: in vivo
[1] = tested on: Myzus persicae; test: Activity against Myzus persicae (green peach aphid), feeding/contact activity; conditions: foliar, 144 h, application rate 200 ppm, sunflower leaf discs, mixed ages, 6 days after infestation
Method: Activity Against Myzus persicae (Green Peach Aphid) Feeding/Contact Activity
Sunflower leaf discs were placed onto agar in a 24-well microtiter plate and sprayed with aqueous test solutions prepared from 10'000 ppm DMSO stock solutions. After drying, the leaf discs were infested with an aphid population of mixed ages. The samples were assessed for mortality 6 days after infestation.

[2] = tested on: Plutella xylostella; test: Activity against Plutella xylostella (diamond back moth), artificial diet; conditions: 192 h, application rate 200 ppm, eggs, 8 days after infestation, read-out: effect in at least one of the two categories (mortality or growth inhibition)
Method: Activity Against Plutella xylostella (Diamond Back Moth)
24-well microtiter plates with artificial diet were treated with aqueous test solutions prepared from 10'000 ppm DMSO stock solutions by pipetting. After drying, Plutella eggs were pipetted through a plastic stencil onto a gel blotting paper and the plate was closed with it. The samples were assessed for mortality and growth inhibition in comparison to untreated samples 8 days after infestation.

[3] = tested on: Myzus persicae; test: Activity against Myzus persicae (green peach aphid), systemic activity; conditions: 144 h, test rate 24 ppm, pea seedling roots in test solution, 6 days
Method: Activity Against Myzus persicae (Green Peach Aphid) Systemic Activity
Roots of pea seedlings infested with an aphid population of mixed ages were placed directly into aqueous test solutions prepared from 10'000 DMSO stock solutions. The samples were assessed for mortality 6 days after placing seedlings into test solutions.

[4] = tested on: Chilo suppressalis; test: Activity against Chilo suppressalis (striped rice stemborer), artificial diet; conditions: 144 h, application rate 200 ppm, L2 larvae, 6 days after infestation
Method: Activity Against Chilo suppressalis (Striped Rice Stemborer)
24-well microtiter plates with artificial diet were treated with aqueous test solutions prepared from 10'000 ppm DMSO stock solutions by pipetting. After drying, the plates were infested with L2 larvae (6-8 per well). The samples were assessed for mortality, anti-feeding effect, and growth inhibition in comparison to untreated samples 6 days after infestation. Control of Chilo suppressalis by a test sample is given when at least one of the categories mortality, anti-feedant effect, and growth inhibition is higher than the untreated sample.

[5] = tested on: Euschistus heros; test: Activity against Euschistus heros (neotropical brown stink bug), soybean leaves; conditions: 120 h, application rate 200 ppm, N2 nymphs, 5 days after infestation, read-out: effect in at least one of the two categories (mortality or growth inhibition)
Method: Activity Against Euschistus heros (Neotropical Brown Stink Bug)
Soybean leaves on agar in 24-well microtiter plates were sprayed with aqueous test solutions prepared from 10'000 ppm DMSO stock solutions. After drying the leaves were infested with N2 nymphs. The samples were assessed for mortality and growth inhibition in comparison to untreated samples 5 days after infestation.

[6] = tested on: Spodoptera littoralis; test: Activity against Spodoptera littoralis (Egyptian cotton leaf worm), cotton leaf discs; conditions: foliar, 72 h, application rate 200 ppm, L1 larvae, 3 days after infestation
Method: Activity Against Spodoptera littoralis (Egyptian Cotton Leaf Worm)
Cotton leaf discs were placed onto agar in 24-well microtiter plates and sprayed with aqueous test solutions prepared from 10'000 ppm DMSO stock solutions. After drying the leaf discs were infested with five L1 larvae. The samples were assessed for mortality, anti-feeding effect, and growth inhibition in comparison to untreated samples 3 days after infestation. Control of Spodoptera littoralis by a test sample is given when at least one of the categories mortality, anti-feedant effect, and growth inhibition is higher than the untreated sample.

[7] = tested on: Diabrotica balteata; test: Activity against Diabrotica balteata (corn root worm), maize sprouts; conditions: 96 h, application rate 200 ppm, L2 larvae, 4 days after infestation, read-out: effect in at least one of the two categories (mortality or growth inhibition)
Method: Activity Against Diabrotica balteata (Corn Root Worm)
Maize sprouts placed onto an agar layer in 24-well microtiter plates were treated with aqueous test solutions prepared from 10'000 ppm DMSO stock solutions by spraying. After drying, the plates were infested with L2 larvae (6 to 10 per well). The samples were assessed for mortality and growth inhibition in comparison to untreated samples 4 days after infestation.

CCS(=O)(=O)c1cc(C2(C#N)CC2)cnc1-c1coc2ccc(C(F)(F)F)cc2c1=O [P.1, 1-[5-ethylsulfonyl-6-[4-oxo-6-(trifluoromethyl)chromen-3-yl]-3-pyridyl]cyclopropanecarbonitrile]
≥ 80%: mortality at 200 ppm [1] | percent effect (mortality or growth inhibition) at 200 ppm [2] | mortality at 24 ppm [3] | percent control (mortality, anti-feedant effect or growth inhibition) at 200 ppm [4] | percent effect (mortality or growth inhibition) at 200 ppm [5] | percent control (mortality, anti-feedant effect or growth inhibition) at 200 ppm [6] | percent effect (mortality or growth inhibition) at 200 ppm [7]

CCS(=O)(=O)c1cc(C2(C#N)CC2)cnc1-c1coc2ccc(F)cc2c1=O [P.2, 1-[5-ethylsulfonyl-6-(6-fluoro-4-oxo-chromen-3-yl)-3-pyridyl]cyclo-propanecarbonitrile]
≥ 80%: percent effect (mortality or growth inhibition) at 200 ppm [2] | mortality at 24 ppm [3] | percent control (mortality, anti-feedant effect or growth inhibition) at 200 ppm [4] | percent effect (mortality or growth inhibition) at 200 ppm [5] | percent control (mortality, anti-feedant effect or growth inhibition) at 200 ppm [6] | percent effect (mortality or growth inhibition) at 200 ppm [7]

CCS(=O)(=O)c1cc(C2(C#N)CC2)cnc1-c1coc2ccc(Cl)cc2c1=O [P.3, 1-[6-(6-chloro-4-oxo-chromen-3-yl)-5-ethylsulfonyl-3-pyridyl]-cyclopropanecarbonitrile]
≥ 80%: mortality at 200 ppm [1] | percent effect (mortality or growth inhibition) at 200 ppm [2] | percent control (mortality, anti-feedant effect or growth inhibition) at 200 ppm [4] | percent effect (mortality or growth inhibition) at 200 ppm [5] | percent control (mortality, anti-feedant effect or growth inhibition) at 200 ppm [6] | percent effect (mortality or growth inhibition) at 200 ppm [7]

CCS(=O)(=O)c1cc(C2(C#N)CC2)cnc1-c1coc2ccc(C#N)cc2c1=O [P.4, 3-[5-(1-cyanocyclopropyl)-3-ethylsulfonyl-2-pyridyl]-4-oxo-chromene-6-carbonitrile]
≥ 80%: percent effect (mortality or growth inhibition) at 200 ppm [2] | mortality at 24 ppm [3]

CCS(=O)(=O)c1cc(C2(C#N)CC2)cnc1-c1coc2ccc(Br)cc2c1=O [P.5, 1-[6-(6-bromo-4-oxo-chromen-3-yl)-5-ethylsulfonyl-3-pyridyl]-cyclopropanecarbonitrile]
≥ 80%: percent effect (mortality or growth inhibition) at 200 ppm [2] | percent control (mortality, anti-feedant effect or growth inhibition) at 200 ppm [4] | percent effect (mortality or growth inhibition) at 200 ppm [5] | percent control (mortality, anti-feedant effect or growth inhibition) at 200 ppm [6] | percent effect (mortality or growth inhibition) at 200 ppm [7]

CCS(=O)(=O)c1cc(C2(C#N)CC2)cnc1-c1coc2ccc(I)cc2c1=O [P.6, 1-[5-ethylsulfonyl-6-(6-iodo-4-oxo-chromen-3-yl)-3-pyridyl]cyclo-propanecarbonitrile]
≥ 80%: mortality at 200 ppm [1] | percent effect (mortality or growth inhibition) at 200 ppm [2] | percent control (mortality, anti-feedant effect or growth inhibition) at 200 ppm [4] | percent effect (mortality or growth inhibition) at 200 ppm [5] | percent control (mortality, anti-feedant effect or growth inhibition) at 200 ppm [6] | percent effect (mortality or growth inhibition) at 200 ppm [7]

CCS(=O)(=O)c1cc(C2(C#N)CC2)cnc1-c1coc2ccc(-c3cc(F)cc(F)c3)cc2c1=O [P.7, 1-[6-[6-(3,5-difluorophenyl)-4-oxo-chromen-3-yl]-5-ethylsulfonyl-3-pyridyl]-cyclopropanecarbonitrile]
≥ 80%: mortality at 200 ppm [1] | percent control (mortality, anti-feedant effect or growth inhibition) at 200 ppm [6] | percent effect (mortality or growth inhibition) at 200 ppm [7]

CCS(=O)(=O)c1cc(C2(C#N)CC2)cnc1-c1coc2ccc(-c3ccc(F)cc3)cc2c1=O [P.8, 1-[5-ethylsulfonyl-6-[6-(4-fluorophenyl)-4-oxo-chromen-3-yl]-3-pyridyl]-cyclopropanecarbonitrile]
≥ 80%: percent effect (mortality or growth inhibition) at 200 ppm [2] | percent control (mortality, anti-feedant effect or growth inhibition) at 200 ppm [4]
